Consider two compounds from US5260321A, “Use of 1,4-dihydropyridine derivatives and combinations thereof with calcitonins” (priority 1984, dated 1993).

SMILES strings stand for the structures.

What all share (format): in vivo
Data set [1] concerns ionized calcium concentration in the blood. The experiment in a line: Rabbit test: ionized calcium in blood by calcium ion selective electrode. The settings on record: PN alone. How it is done:
(§1) The effect of the compounds of the invention in lowering calcium levels is indicated in any standard animal test for hypercalcemic activity. In one test the compound is administered to rabbits (e.g. ca. 1 kg in weight) either as a suspension e.g. 0.1 to 5 mg (e.g. 0, 1 mg) per ml of solution (i.e. blood plasma with ca. 1-5% alcohol) and 0.1-5 mg/kg animal body weight by intravenous infusion (0.5 ml per hour) or orally e.g. 1 to 5 mg/kg animal body weight as a suspension in distilled water. A significant lowering of calcium ions is observed using standard measuring techniques for calcium ions in the blood, e.g. using a calcium ion selective electrode, or by photometric methods.
One method for measuring calcium ion concentrations is as follows: […]
The concentration of ionized calcium in the blood is measured potentiometrically as follows: The difference in potential between the reference electrode and the Ca^2+ -selective electrode is measured differentially relative to the common electrode. The difference is amplified and the analogue signal produced by the amplifier is processed by a digital voltmeter and continuously recorded as a function of time, the difference in voltage being proportional to the Ca^2+ concentration. […]

In data set [2] the test system is total calcium. Nature of the data set: Rabbit intravenous experiment repeated, total calcium measured photometrically. The settings on record: intravenous infusion, photometric. How it is done:
as §1
The intravenous experiment is repeated measuring total calcium photometrically. Drop in calcium levels over 11/2 hours=23%, over 21/2 hours=30%.

Data set [3] deals with neointimal lesion development in the rat carotid artery. The experiment in a line: Inhibition of neointimal lesion development in the rat carotid artery (balloon catheterization test). The following applies: for Maximal intimal height: mean ± SD. How it is done:
The anti-atherogenic activity has been confirmed also by measurement of the inhibition of neointimal lesion development in the rat carotid artery (balloon catheterization test, essentially as published in A. W. Clowes et al., Lab. Invest. 49 [1983]208-215).
In a first experiment a group of 12 rats was given PN 250 μg/kg/day in 10% ethanol-water s.c. A control group of 9 animals was non-injected and a further control group of 7 animals was vehicle-injected. Animals were randomized into 3 groups for catheterization and were weighed every other day throughout the study. Rats were anesthetized with ether inhalation. The […] region was shaved and the external branch of the left common carotid artery was isolated by an incision from the lower mandible to the clavicle, followed by retracting the submaxillary gland (lateral) and several muscle bundles including the sternohyoideus (medial), sternomastoideus (lateral) and digastricus posterior belly (lateral). […] Lidocaine was applied to vasodilate during catheter introduction. Following an incision with iris scissors, a Fogarty arterial embolectomy catheter (No. 2F) was inserted into the external branch of the carotid, passed into the aortic arch and slightly withdrawn to assure inflation of the catheter within the common carotid artery. The catheter was inflated using approximately 900 mmHg air pressure, drawn distally and deflated. This was repeated three times to assure complete de-endothelialization of the common carotid. The catheter was removed, the artery ligated and the incision closed. Under these conditions the carotid is completely de-endothelialized.
Animals were sacrificed 14 days after ballooning in the same sequence as the catheterization. Thirty minutes before fixation the animals were injected with a 2.25% Evan's Blue dye solution (1.5 mg/kg iv) to differentiate between the neointimal and re-endothelialized areas. Areas of the carotid that have endothelial regrowth exclude the dye and appear white. The remaining areas that lack endothelium are stained blue. Whole body (beating heart) perfusion fixations (90-110 mmHg) were then performed on anesthetized (sodium pentobarbital, 50.0 mg/kg ip) animals using 200 ml of 1% glutaraldehyde in 0.15M sodium cacodylate buffer (pH 7.4, 37° C., 410 mOsm) followed by 400 ml of 3% glutaraldehyde in 0.15M sodium cacodylate. The entry site of the fixative was a puncture in the left ventricle, with efflux collected by vacuum suction from the right atrium. The thoracic aorta flow was restricted to optimize carotid perfusion. Successful fixation was judged by upper body rigidity and an absence of blood from the large arteries.
In a second experiment the procedure as described above was followed, with groups consisting of non-injected controls (n=8), animals treated with PY (n=5) or PN (n=8). Animals received drug for 2 days before catheterization and to the conclusion of the study (14 days). PY and PN were given at 1.0 mg/kg in 10% EtOH-water s.c. All animals (controls and drug-treated) were randomized into 3 groups for catheterization.
After each experiment the fixed carotid was removed and cut into 3 segments (distal, central, proximal). Tissue processing of only the central segment included 18 hours in 3% buffered glutaraldehyde, buffer rinsing, dehydration in an ascending ethanol series and infiltration with Spurr's resin. The samples were embedded with cross-sectional orientation so that sectioning (0.5 μm) would include blue areas which have not re-endothelialized and show continued proliferative responses. A two-step polychromatic stain utilizing toluidine blue and 1.0% basic fuchsin rendered histological differentiation to nuclear, cytoplasmic and extracellular connective matrix components.
All light microscopic histology slides were randomized, encoded and evaluated utilizing a Zeiss standard microscope and the Videoplan computerized image analyzer. Vessel measurements included maximum lesion height. […]

Setting [4] is: Expt. 2, 1.0 mg/kg s.c. from 2 days before catheterization to day 14, controls 72.4 ± 17.4.

For `COC(=O)C1=C(C)NC(C)=C(C(=O)OC(C)C)C1c1cccc2nonc12` (centres unmarked) [PN, 4-(2,1,3-benzoxadiazol-4yl)-1,4-dihydro-2,6-dimethyl-3-methoxycarbonyl-pyridine-5-carboxylic acid isopropyl ester], the “Lowering of ionized calcium” value in data set [1] (intravenous infusion, 0.5 mg/0.5/over 1 hour) is given as 10-20%; in data set [1] (oral 1 mg/kg), 5-10%. Besides, the figures for the “Drop in calcium levels (total calcium)” value in data set [2] (over 11/2 hours) and in data set [2] (over 21/2 hours) were 23% and 30%, respectively. For the same compound, the “Inhibition of lesion development” value is recorded as 26% in data set [3] (Expt. 1, 0.25 mg/kg/d) and 46% in data set [3] (Expt. 2, 1.0 mg/kg/d). Also, the Maximal intimal height stood at 63.2 ± 19.9 μm in data set [3] (Expt. 1, 0.25 mg/kg/day s.c., 14 days after ballooning, controls 84.9 ± 21.3) and 38.9 ± 22.0 μm in data set [3] (setting [4]).

`CCOC(=O)C1=C(C)NC(C)=C(C(=O)OCC)C1c1cccc2nonc12` [PY, 4-(2,1,3-benzoxadiazol-4-yl)-1,4-dihydro-2,6-dimethylpyridine-3,5-dicarboxylic acid diethyl ester] yielded a Maximal intimal height in data set [3] (setting [4]) of 58.6 ± 18.1 μm. In addition, in data set [3] (Expt. 2, 1.0 mg/kg/d), the “Inhibition of lesion development” value was determined as 19%. Also, the Tolerability entry in data set [3] (rats, s.c., all doses used (0.25 and 1.0 mg/kg)) is reported as “tolerated at all doses used”.
